Reference: patent publication US7820379B2, “Process for high throughput screening of CpG-based immuno-agonist/antagonist” (Coley Pharmaceutical GmbH, priority 2000, dated 2010)

Columns and labels:
murine splenocytes = assay: IL-12 production in murine splenocytes; type: cell-based; conditions: ODN titration, after 8 hours
From the text: By iterative examination of the flanking sequences surrounding CG dinucleotides, CpG-motifs have been identified. Paradoxically, or by twist of nature, the human optimal CpG-motif, GTCGTT (SEQ ID NO:66), is different from the murine motif, GACGTT (SEQ ID NO:129). Human peripheral blood mononuclear cells (PBMC) (FIG. 10A) and murine splenocytes (FIG. 10B) were stimulated with ODN 2006 (filled circle, […], SEQ ID NO:112), ODN 2006-GC (open circle), ODN 1668 (filled triangle, […], SEQ ID NO:84) or ODN 1668-GC (open triangle, […], SEQ ID NO:85) at indicated concentrations and IL-12 production was monitored after 8 hours. […] It should also be noted that the Kac (concentration of half-maximal activation) of murine splenocytes for 1668 was greater than human PBMC for 2006 (compare FIG. 10A to FIG. 10B).

human TLR9 = molecular target: T1, human TLR9 (Homo sapiens, UniProt Q9NR96, H530R/Q688R); assay: IL-8 production by ELISA in 293 cells transfected with human TLR9; type: cell-based; conditions: 293 cells transiently transfected with hTLR9 alone; 48 h; ODN 2 μM, LPS 100 ng/ml
T1 construct: expressed in transfected cells
T1 sequence (Q9NR96 26-1032 H530R/Q688R): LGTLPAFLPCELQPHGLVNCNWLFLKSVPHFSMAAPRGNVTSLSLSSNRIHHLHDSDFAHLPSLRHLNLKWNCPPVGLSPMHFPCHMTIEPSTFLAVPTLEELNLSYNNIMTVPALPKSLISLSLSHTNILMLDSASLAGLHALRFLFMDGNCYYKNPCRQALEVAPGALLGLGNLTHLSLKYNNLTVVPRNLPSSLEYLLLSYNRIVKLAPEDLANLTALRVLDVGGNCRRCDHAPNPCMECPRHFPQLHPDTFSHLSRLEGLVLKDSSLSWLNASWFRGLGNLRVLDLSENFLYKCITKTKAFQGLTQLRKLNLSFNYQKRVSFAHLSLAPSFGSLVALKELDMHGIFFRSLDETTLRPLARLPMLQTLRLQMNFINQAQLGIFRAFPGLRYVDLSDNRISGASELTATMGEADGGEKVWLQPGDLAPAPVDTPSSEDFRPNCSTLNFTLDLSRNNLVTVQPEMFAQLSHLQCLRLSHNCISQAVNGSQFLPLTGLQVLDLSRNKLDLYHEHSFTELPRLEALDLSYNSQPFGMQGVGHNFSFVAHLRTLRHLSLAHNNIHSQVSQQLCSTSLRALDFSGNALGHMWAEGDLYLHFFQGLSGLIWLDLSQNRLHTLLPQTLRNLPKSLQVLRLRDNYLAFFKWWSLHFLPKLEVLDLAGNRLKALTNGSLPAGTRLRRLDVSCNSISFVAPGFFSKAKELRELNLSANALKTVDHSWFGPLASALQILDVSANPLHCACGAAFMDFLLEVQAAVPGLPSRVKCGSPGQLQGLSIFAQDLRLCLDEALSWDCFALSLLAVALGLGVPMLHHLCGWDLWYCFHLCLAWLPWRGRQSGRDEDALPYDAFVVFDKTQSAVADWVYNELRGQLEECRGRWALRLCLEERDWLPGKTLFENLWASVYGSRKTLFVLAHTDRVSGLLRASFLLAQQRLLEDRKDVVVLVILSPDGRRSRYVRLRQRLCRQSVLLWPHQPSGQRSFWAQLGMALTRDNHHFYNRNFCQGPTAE
From the text: Since NF-κB activation is central to the IL-1/TLR signal transduction pathway (Medzhitov R et al., Mol Cell 2:253-258 (1998); Muzio M et al., J Exp Med 187:2097-2101 (1998)), cells were transfected with hTLR9 or co-transfected with hTLR9 and a NF-κB-driven luciferase reporter construct. Human fibroblast 293 cells were transiently transfected with (FIG. 1A) hTLR9 and a six-times NF-κB-luciferase reporter plasmid (NF-κB-luc, kindly provided by Patrick Baeuerle, Munich, Germany) or (FIG. 1B) with hTLR9 alone. After stimulus with CpG-ODN (2006, 2 μM, […], SEQ ID NO:112), GpC-ODN (2006-GC, 2 μM, […], SEQ ID NO:118), LPS (100 ng/ml) or media, NF-κB activation by luciferase readout (8 h, FIG. 1A) or IL-8 production by ELISA (48 h, FIG. 1B) were monitored. Results are representative of three independent experiments. […]
Because stable TLR9 transfectants mirrored primary cell responsiveness to CpG-DNA (FIGS. 4 and 5), it was hypothesized that stable transfectants could potentially discern species-specific CpG-motifs through TLR9 receptors. […] Depicted are both NF-κB-driven luciferase and IL-8 production as readout. […] After lysis of the cells luciferase can be detected photometrically based on an enzymatic reaction by luciferase which creates photons. IL-8 production was monitored using enzyme-linked immunosorbent assay (ELISA). […]

[1] = test system: plasmacytoid DC (CD123+DC); assay: Cytokine production by plasmacytoid dendritic cells (ELISA); type: cell-based, human; conditions: purified CD123+DC; ODN 2 μM, LPS 100 ng/ml
Experimental: Human dendritic cells (DC) have been claimed to be responsive to CpG-DNA. […] The converse was true for stimulation of monocyte-derived dendritic cells (MDDC) (FIG. 8 and unpublished data). […] IL-8 and TNF concentration was determined by enzyme-linked immunosorbent assay (ELISA). The CD123+DC response was DNA- and CpG-motif restricted. […] Due to this segregated response we analyzed TLR expression.

Substance | IL-12 production (murine splenocytes) | IL-8 production by ELISA (human TLR9) | cytokine production by CD123+DC [1]
TCCATGACGTTCCTGATGCT (listed as DNA, chemistry not fully specified) [ODN 1668] | induced optimal IL-12 |  | 
TCGTCGTTTTGTCGTTTTGTCGTT [ODN 2006] | much less effective | responded | produced IFN-α, TNF, GM-CSF, and IL-8
lipopolysaccharide [LPS] |  | not | not
